Assay results from patent US11951148B1 (Fleurir ABX LLC, priority 2014, dated 2024).

How the values were obtained:
Format in all cases: cell-based
E. coli 7623 [1] = assay: MIC, CLSI broth microdilution assay; conditions: agent alone
Experimental: (§1) For the described examples, reference and clinical isolates were generally obtained from known sources, including American Type Culture Collection (Manasas, VA.) or International Health Management Associates, Inc. (Schaumberg, IL). Bacteria were cultured in suitable broth, concentrated by centrifugation, and cryopreserved in the same medium, generally containing 20% glycerol by holding at −80° C. Every two weeks a small amount of frozen culture was removed aseptically and streaked on fresh agar plates to act as a working inoculum. Following overnight growth at about 37° C., the plates were wrapped in parafilm and held at about 4° C. Bacteria (4-5 colonies) were then aseptically transferred into broth growth medium for assays as needed.
(§2) Minimal inhibitory concentration (MIC) assays were performed in a manner as described for the CLSI broth microdilution assay guideline (see, Clinical Laboratory Standards Institute, 2009, Methods for Dilution Antimicrobial Susceptibility Tests for Bacteria That Grow Aerobically; Approved Standard, Eighth Edition, M07-A8, Vol. 29, No. 2). Antibiotics were dissolved, and then serially diluted in suitable broth across the assay plate in the classical 2-fold geometric format. Antibiotic concentrations in each well at this point were double what the final assay concentration would be. Bacterial inocula were prepared by swabbing several colonies from a fresh agar plate, and resuspending the bacteria to a density that was the 0.5 McFarland turbidity standard (generally close or equivalent to 1×10^8 CFU/mL). The bacterial inocula were diluted in the broth to about 1×10^6 CFU/mL, and a suitable amount, e.g., 100 μL was overlayered onto the wells containing the diluted antibiotics. Following incubation as per the guideline, results were recorded as growth or no growth, and the lowest concentration of antibiotic where no growth was observed was declared the MIC.

E. coli ATCC 25922 = assay: MIC, CLSI broth microdilution assay; conditions: agent alone
Experimental: as §1, §2

A. baumannii 160S = assay: MIC, CLSI broth microdilution assay; conditions: agent alone
Experimental: as §1, §2

K. pneumoniae 1161486 [2] = assay: MIC, CLSI broth microdilution assay; conditions: agent alone
Experimental: as §1, §2

K. pneumoniae 170S [3] = assay: MIC, CLSI broth microdilution assay; conditions: agent alone
Experimental: as §1, §2

E. coli 7623 [4] = assay: Synergy checkerboard assay of antibacterial combinations; conditions: in combination with A-24
Experimental: as §1
as §2, with “Bacterial inocula were prepared by swabbing several colonies from a fresh agar plate, and resuspending the bacteria to a density that was the 0.5 McFarland turbidity standard (generally close or equivalent to 1×10^8 CFU/mL). The bacterial inocula were diluted in the broth to about 1×10^6 CFU/mL, and a suitable amount, e.g., 100 μL was overlayered onto the wells containing the diluted antibiotics.” left out
(§3) To assay for synergy of antibacterial combinations, a recognized synergy checkerboard assay, adapted from the CLSI guideline microdilution assay, was utilized (see Eliopoulos, G. M., and Moellering, R. C, Jr., 1996. Antimicrobial Combinations, pg. 330-396. In: Lorian, V. (Ed.), Antibiotics in Laboratory Medicine, 4th Ed., Williams & Wilkins; Baltimore, MD). […] The fractional inhibitory concentration, which provides the mathematical definition (as shown below) is calculated to determine whether antibacterial synergy was observed. […]

K. pneumoniae 1161486 [5] = assay: as above; conditions: in combination with A-24
Experimental: as §1
as §2, with “Bacterial inocula were prepared by swabbing several colonies from a fresh agar plate, and resuspending the bacteria to a density that was the 0.5 McFarland turbidity standard (generally close or equivalent to 1×10^8 CFU/mL). The bacterial inocula were diluted in the broth to about 1×10^6 CFU/mL, and a suitable amount, e.g., 100 μL was overlayered onto the wells containing the diluted antibiotics.” left out
as §3

K. pneumoniae 170S [6] = assay: as above; conditions: in combination with A-24
Experimental: as §1
as §2, with “Bacterial inocula were prepared by swabbing several colonies from a fresh agar plate, and resuspending the bacteria to a density that was the 0.5 McFarland turbidity standard (generally close or equivalent to 1×10^8 CFU/mL). The bacterial inocula were diluted in the broth to about 1×10^6 CFU/mL, and a suitable amount, e.g., 100 μL was overlayered onto the wells containing the diluted antibiotics.” left out
as §3

## pristinamycin
E. coli 7623 [1]
  MIC: 64 µg/mL
E. coli ATCC 25922
  MIC: 64 µg/mL
A. baumannii 160S
  MIC: 128 µg/mL
K. pneumoniae 1161486 [2]
  MIC: >128 µg/mL
K. pneumoniae 170S [3]
  MIC: >128 µg/mL
E. coli 7623 [4]
  MIC of Pristinamycin in Combo: 32 µg/mL
K. pneumoniae 1161486 [5]
  MIC of Pristinamycin in Combo: ≤2 µg/mL
K. pneumoniae 170S [6]
  MIC of Pristinamycin in Combo: 2 µg/mL
